Measured values from US7897627B2, “Heteroaryl derivatives as orexin receptor antagonists” (Hoffmann-La Roche Inc., priority 2007, dated 2011).

Target: T1, human orexin-2 (hOX2) receptor (Homo sapiens, UniProt O43614)
T1 construct: expressed in transfected cells
T1 sequence (O43614 1-444): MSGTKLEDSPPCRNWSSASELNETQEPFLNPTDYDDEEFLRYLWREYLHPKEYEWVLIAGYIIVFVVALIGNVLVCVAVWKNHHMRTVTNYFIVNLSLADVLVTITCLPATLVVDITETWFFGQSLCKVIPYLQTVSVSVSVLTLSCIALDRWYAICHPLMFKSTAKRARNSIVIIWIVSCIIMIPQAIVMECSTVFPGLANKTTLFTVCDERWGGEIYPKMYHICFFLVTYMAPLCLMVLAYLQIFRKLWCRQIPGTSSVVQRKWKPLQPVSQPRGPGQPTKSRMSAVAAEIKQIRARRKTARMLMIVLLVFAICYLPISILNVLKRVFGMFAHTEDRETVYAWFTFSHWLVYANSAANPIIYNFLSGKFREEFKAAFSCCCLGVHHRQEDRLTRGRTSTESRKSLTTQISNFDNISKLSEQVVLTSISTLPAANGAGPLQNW
Experiment: Intracellular Ca2+ mobilization assay (FLIPR), CHO(dHFr-) cells expressing hOX2, orexin-A as agonist
Type: cell-based
Details: antagonist Kb=IC50/(1+[A]/EC50); orexin-A at EC80; CHO(dHFr-)-OX2R cells; antagonist applied 25 min before agonist
Method: Intracellular Ca^2+ Mobilization Assay
The Chinese Hamster Ovary (dHFr-) mutant cell line stably expressing human orexin-1 (hOX1) or human orexin-2 (hOX2) receptors were maintained in Dulbecco's Modified Eagle Medium (1×) with GlutaMax™1, 4500 mg/L D-Glucose and Sodium Pyruvate (Catalog No. 31966-021, Invitrogen, Carlsbad, Calif.), 5% dialyzed fetal calf serum (Catalog No. 26400-044), 100 μg/ml penicillin and 100 μg/ml streptomycin. The cells were seeded at 5×10^4 cells/well in the poly-D-lysine treated, 96-well, black/clear-bottomed plates (Catalog No. BD356640, BD Biosciences, Palo Alto, Calif.). 24 h later, the cells were loaded for 1 h at 37° C. with 4 μM Flou-4 acetoxymethyl ester (Catalog No. F-14202, Molecular Probes, Eugene, Oreg.) in FLIPR buffer (1×HBSS, 20 mM HEPES, 2.5 mM Probenecid). Hanks' Balanced Salt Solution (HBSS) (10×) (catalog No. 14065-049) and HEPES (1M) (catalog No. 15630-056) were purchased from Invitrogen, Carlsbad, Calif. Probenecid (250 mM) (catalog No. P8761) was from Sigma, Buchs, Switzerland. The cells were washed five times with FLIPR buffer to remove excess dye and intracellular calcium mobilization, [Ca^2−]i were measured using a Fluorometric Imaging Plate Reader (FLIPR-96, Molecular Devices, Menlo Park, Calif.) as described previously (Malherbe et al., Mol. Pharmacol., 64, 823-832, 2003). Orexin A (catalog No. 1455, Toris Cookson Ltd, Bristol, UK) was used as agonist. Orexin A ([…] stock solution in DMSO) was diluted in FLIPR buffer+0.1% BSA. The EC50 and EC80 values of orexin-A were measured daily from standard agonist concentration-response curves in CHO(dHFr-)-OX1R and -OX2R cell lines. All compounds were dissolved in 100% DMSO. Inhibition curves were determined by addition of 11 concentrations (0.0001-10 μM) of inhibitory compounds and using EC80 value of orexin-A as agonist (a concentration which gave 80% of max agonist response, determined daily). The antagonists were applied 25 min (incubation at 37° C.) before the application of the agonist. Responses were measured as peak increase in fluorescence minus basal, normalized to the maximal stimulatory effect induced by EC80 value of orexin-A or orexin-B. Inhibition curves were fitted according to the Hill equation: y=100/(1+(x/IC50)^nH), where nH=slope factor using Excel-fit 4 software (Microsoft).
Kb values were calculated according to the following equation Kb=IC50/(1+[A]/EC50) where A is the concentration of agonist added which is very close to agonist EC80 value, and IC50 and EC50 values were derived from the antagonist inhibition and orexin-A or B agonist curves, respectively.

SMILES	Kb [µM]
Cc1noc(-c2ccccc2C(=O)N2CC[C@@H](Nc3nc4cc(F)cc(F)c4s3)C2)n1 [Example 135, [(R)-3-(5,7-Difluoro-benzothiazol-2-ylamino)-pyrrolidin-1-yl]-[2-(3-methyl-[1,2,4]oxadiazol-5-yl)-phenyl]-methanone]	0.0394
O=C(c1ccccc1OC(F)F)N1CC[C@@H](Nc2nc3ccc(Cl)cc3o2)C1 [Example 56, [(R)-3-(6-Chloro-benzooxazol-2-ylamino)-pyrrolidin-1-yl]-(2-difluoromethoxy-phenyl)-methanone]	0.047
O=C(c1ccccc1OC(F)(F)C(F)F)N1CC[C@@H](Nc2nc3cccc(F)c3o2)C1 [Example 141, [(R)-3-(7-Fluoro-benzooxazol-2-ylamino)-pyrrolidin-1-yl]-[2-(1,1,2,2-tetrafluoro-ethoxy)-phenyl]-methanone]	0.0138
COc1cccc(OC)c1C(=O)N1CC[C@@H](Nc2nc3cccc(Cl)c3o2)C1 [Example 97, [(R)-3-(7-Chloro-benzooxazol-2-ylamino)-pyrrolidin-1-yl]-(2,6-dimethoxy-phenyl)-methanone]	0.0063
O=C(c1ccccc1OC(F)(F)C(F)F)N1CC[C@@H](Nc2nc3ccc(F)cc3s2)C1 [Example 114, [(R)-3-(6-Fluoro-benzothiazol-2-ylamino)-pyrrolidin-1-yl]-[2-(1,1,2,2-tetrafluoro-ethoxy)-phenyl]-methanone]	0.002
Cc1ccc(Cl)c(C(=O)N2CC[C@@H](Nc3nc4ccc(F)cc4s3)C2)c1 [Example 118, (2-Chloro-5-methyl-phenyl)-[(R)-3-(6-fluoro-benzothiazol-2-ylamino)-pyrrolidin-1-yl]-methanone]	0.039
Cc1ccc(C(F)(F)F)c(C(=O)N2CC[C@@H](Nc3nc4ccc(Cl)cc4o3)C2)c1 [Example 68, [(R)-3-(6-Chloro-benzooxazol-2-ylamino)-pyrrolidin-1-yl]-(5-methyl-2-trifluoromethyl-phenyl)-methanone]	0.0018
O=C(c1ccccc1-n1cccc1)N1CC[C@@H](Nc2nc3ccc(Cl)cc3o2)C1 [Example 28, [(R)-3-(6-Chloro-benzooxazol-2-ylamino)-pyrrolidin-1-yl]-(2-pyrrol-1-yl-phenyl)-methanone]	0.0096
Cc1ccc(C(F)(F)F)c(C(=O)N2CC[C@@H](Nc3cnc4cc(Cl)ccc4n3)C2)c1 [Example 176, [(R)-3-(6-Chloro-quinoxalin-2-ylamino)-pyrrolidin-1-yl]-(5-methyl-2-trifluoromethyl-phenyl)-methanone]	0.014
Cc1ccc(C(F)(F)F)c(C(=O)N2CC[C@@H](Nc3nc4ccc(F)c(F)c4o3)C2)c1 [Example 150, [(R)-3-(6,7-Difluoro-benzooxazol-2-ylamino)-pyrrolidin-1-yl]-(5-methyl-2-trifluoromethyl-phenyl)-methanone]	0.0136
COc1cccc(OC)c1C(=O)N1CC[C@@H](Nc2cnc3cc(F)ccc3n2)C1 [Example 110, (2,6-Dimethoxy-phenyl)-[(R)-3-(6-fluoro-quinoxalin-2-ylamino)-pyrrolidin-1-yl]-methanone]	0.0319
Cc1cccc(-c2ccccc2C(=O)N2CC[C@@H](Nc3nc4ccc(Cl)cc4o3)C2)c1 [Example 75, [(R)-3-(6-Chloro-benzooxazol-2-ylamino)-pyrrolidin-1-yl]-(3′-methyl-biphenyl-2-yl)-methanone]	0.0163
Cc1nc(C(=O)N2CC[C@@H](Nc3cnc4cc(Cl)ccc4n3)C2)c(-c2ccccc2)s1 [Example 181, [(R)-3-(6-Chloro-quinoxalin-2-ylamino)-pyrrolidin-1-yl]-(2-methyl-5-phenyl-thiazol-4-yl)-methanone]	0.028
Cc1nc(C(=O)N2CC[C@@H](Nc3nc4ccc(F)c(F)c4o3)C2)c(-c2ccccc2)s1 [Example 155, [(R)-3-(6,7-Difluoro-benzooxazol-2-ylamino)-pyrrolidin-1-yl]-(2-methyl-5-phenyl-thiazol-4-yl)-methanone]	0.0304
O=C(c1ccccc1OC(F)(F)C(F)F)N1CC[C@@H](Nc2nc3ccc(Cl)cc3o2)C1 [Example 82, [(R)-3-(6-Chloro-benzooxazol-2-ylamino)-pyrrolidin-1-yl]-[2-(1,1,2,2-tetrafluoro-ethoxy)-phenyl]-methanone]	0.0041
O=C(c1c(Cl)cccc1C(F)(F)F)N1CC[C@@H](Nc2nc3ccc(Cl)cc3o2)C1 [Example 79, [(R)-3-(6-Chloro-benzooxazol-2-ylamino)-pyrrolidin-1-yl]-(2-chloro-6-trifluoromethyl-phenyl)-methanone]	0.0173
O=C(c1ccccc1C(F)(F)F)N1CC[C@@H](Nc2nc3ccc(F)cc3s2)C1 [Example 112, [(R)-3-(6-Fluoro-benzothiazol-2-ylamino)-pyrrolidin-1-yl]-(2-trifluoromethyl-phenyl)-methanone]	0.0344
O=C(c1ccccc1OC(F)(F)C(F)F)N1CC[C@@H](Nc2cnc3ccccc3n2)C1 [Example 184, [(R)-3-(Quinoxalin-2-ylamino)-pyrrolidin-1-yl]-[2-(1,1,2,2-tetrafluoro-ethoxy)-phenyl]-methanone]	0.0021
COc1cccc(OC)c1C(=O)N1CCC(Nc2nc3ccc(Cl)cc3s2)C1 (stereo not drawn) [Example 7, [3-(6-Chloro-benzothiazol-2-ylamino)-pyrrolidin-1-yl]-(2,6-dimethoxy-phenyl)-methanone]	0.0228
O=C(c1ccccc1C(F)(F)F)N1CC[C@@H](Nc2nc3ccc(Cl)cc3o2)C1 [Example 63, [(R)-3-(6-Chloro-benzooxazol-2-ylamino)-pyrrolidin-1-yl]-(2-trifluoromethyl-phenyl)-methanone]	0.0219
Cc1ccc(C(F)(F)F)c(C(=O)N2CC[C@@H](Nc3nc4c(F)cccc4s3)C2)c1 [Example 124, [(R)-3-(4-Fluoro-benzothiazol-2-ylamino)-pyrrolidin-1-yl]-(5-methyl-2-trifluoromethyl-phenyl)-methanone]	0.0363
O=C(c1ccccc1OC(F)(F)C(F)F)N1CC[C@@H](Nc2nc3c(F)cccc3s2)C1 [Example 123, [(R)-3-(4-Fluoro-benzothiazol-2-ylamino)-pyrrolidin-1-yl]-[2-(1,1,2,2-tetrafluoro-ethoxy)-phenyl]-methanone]	0.0032
Cc1onc(-c2ccccc2)c1C(=O)N1CC[C@@H](Nc2cnc3cc(Cl)ccc3n2)C1 [Example 177, [(R)-3-(6-Chloro-quinoxalin-2-ylamino)-pyrrolidin-1-yl]-(5-methyl-3-phenyl-isoxazol-4-yl)-methanone]	0.0423
COc1cccc(OC)c1C(=O)N1CC[C@@H](Nc2nc3ccc(F)cc3o2)C1 [Example 95, (2,6-Dimethoxy-phenyl)-[(R)-3-(6-fluoro-benzooxazol-2-ylamino)-pyrrolidin-1-yl]-methanone]	0.0426
O=C(c1ccccc1-c1ncn[nH]1)N1CC[C@@H](Nc2nc3ccc(Cl)cc3o2)C1 [Example 62, [(R)-3-(6-Chloro-benzooxazol-2-ylamino)-pyrrolidin-1-yl]-[2-(2H-[1,2,4]triazol-3-yl)-phenyl]-methanone]	0.014
Cc1ccc(C(F)(F)F)c(C(=O)N2CC[C@@H](Nc3cnc4cc(F)ccc4n3)C2)c1 [Example 207]	0.0046
COc1cccc(OC)c1C(=O)N1CC[C@@H](Nc2nc3c(F)cccc3s2)C1 [Example 94, (2,6-Dimethoxy-phenyl)-[(R)-3-(4-fluoro-benzothiazol-2-ylamino)-pyrrolidin-1-yl]-methanone]	0.0091
